Data taken from ChEMBL document CHEMBL5523684, “Development of a tetrahydroindazolone-based HDAC6 inhibitor with in-vivo anti-arthritic activity” (Bioorg Med Chem, 2024).
Each block holds one compound with its values, some of them ahead of it. Active and inactive are the calls of the source. No cut-off for these calls is given here.

Tests used:
Histone deacetylase 5 = Histone deacetylase 5 (Homo sapiens, UniProt Q9UQL6); experiment: Inhibition of human recombinant HDAC5 using Boc-Lys(tri-fluoroacetyl)-AMC as substrate by fluorescence based analysis
Chain of Histone deacetylase 5 (Q9UQL6 whole entry): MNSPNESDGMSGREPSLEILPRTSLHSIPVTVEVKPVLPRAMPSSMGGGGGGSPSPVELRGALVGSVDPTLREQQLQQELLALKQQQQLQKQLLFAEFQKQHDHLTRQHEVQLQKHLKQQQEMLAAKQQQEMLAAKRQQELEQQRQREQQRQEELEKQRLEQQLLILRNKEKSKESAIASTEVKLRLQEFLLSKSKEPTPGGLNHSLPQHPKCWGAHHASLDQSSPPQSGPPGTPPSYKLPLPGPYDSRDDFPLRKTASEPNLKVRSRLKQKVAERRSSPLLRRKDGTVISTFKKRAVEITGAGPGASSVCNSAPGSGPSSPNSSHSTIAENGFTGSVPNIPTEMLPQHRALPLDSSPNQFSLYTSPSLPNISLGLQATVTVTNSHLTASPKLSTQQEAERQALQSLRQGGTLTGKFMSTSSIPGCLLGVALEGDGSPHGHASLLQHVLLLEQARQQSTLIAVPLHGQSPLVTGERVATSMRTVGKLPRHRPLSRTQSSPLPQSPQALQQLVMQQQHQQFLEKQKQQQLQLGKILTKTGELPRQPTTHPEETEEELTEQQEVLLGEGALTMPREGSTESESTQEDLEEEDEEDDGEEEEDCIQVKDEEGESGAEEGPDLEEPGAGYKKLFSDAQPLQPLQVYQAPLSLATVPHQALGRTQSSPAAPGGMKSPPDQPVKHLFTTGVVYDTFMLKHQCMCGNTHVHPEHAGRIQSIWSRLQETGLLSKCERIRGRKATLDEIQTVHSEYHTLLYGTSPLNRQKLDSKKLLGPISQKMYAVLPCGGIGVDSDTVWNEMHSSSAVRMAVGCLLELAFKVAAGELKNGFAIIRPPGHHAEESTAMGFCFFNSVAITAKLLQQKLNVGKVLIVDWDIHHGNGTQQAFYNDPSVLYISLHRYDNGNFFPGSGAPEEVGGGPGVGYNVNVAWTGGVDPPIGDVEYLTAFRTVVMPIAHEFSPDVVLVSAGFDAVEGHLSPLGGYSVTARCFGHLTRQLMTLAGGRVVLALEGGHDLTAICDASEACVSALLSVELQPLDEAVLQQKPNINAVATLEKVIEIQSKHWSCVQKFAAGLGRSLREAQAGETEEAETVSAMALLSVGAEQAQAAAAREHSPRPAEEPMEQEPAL

Histone deacetylase 4 = Histone deacetylase 4 (Homo sapiens, UniProt P56524); experiment: Inhibition of human recombinant HDAC4 using Boc-Lys(tri-fluoroacetyl)-AMC as substrate by fluorescence based analysis
Chain of Histone deacetylase 4 (P56524 whole entry, the tested form may be a part): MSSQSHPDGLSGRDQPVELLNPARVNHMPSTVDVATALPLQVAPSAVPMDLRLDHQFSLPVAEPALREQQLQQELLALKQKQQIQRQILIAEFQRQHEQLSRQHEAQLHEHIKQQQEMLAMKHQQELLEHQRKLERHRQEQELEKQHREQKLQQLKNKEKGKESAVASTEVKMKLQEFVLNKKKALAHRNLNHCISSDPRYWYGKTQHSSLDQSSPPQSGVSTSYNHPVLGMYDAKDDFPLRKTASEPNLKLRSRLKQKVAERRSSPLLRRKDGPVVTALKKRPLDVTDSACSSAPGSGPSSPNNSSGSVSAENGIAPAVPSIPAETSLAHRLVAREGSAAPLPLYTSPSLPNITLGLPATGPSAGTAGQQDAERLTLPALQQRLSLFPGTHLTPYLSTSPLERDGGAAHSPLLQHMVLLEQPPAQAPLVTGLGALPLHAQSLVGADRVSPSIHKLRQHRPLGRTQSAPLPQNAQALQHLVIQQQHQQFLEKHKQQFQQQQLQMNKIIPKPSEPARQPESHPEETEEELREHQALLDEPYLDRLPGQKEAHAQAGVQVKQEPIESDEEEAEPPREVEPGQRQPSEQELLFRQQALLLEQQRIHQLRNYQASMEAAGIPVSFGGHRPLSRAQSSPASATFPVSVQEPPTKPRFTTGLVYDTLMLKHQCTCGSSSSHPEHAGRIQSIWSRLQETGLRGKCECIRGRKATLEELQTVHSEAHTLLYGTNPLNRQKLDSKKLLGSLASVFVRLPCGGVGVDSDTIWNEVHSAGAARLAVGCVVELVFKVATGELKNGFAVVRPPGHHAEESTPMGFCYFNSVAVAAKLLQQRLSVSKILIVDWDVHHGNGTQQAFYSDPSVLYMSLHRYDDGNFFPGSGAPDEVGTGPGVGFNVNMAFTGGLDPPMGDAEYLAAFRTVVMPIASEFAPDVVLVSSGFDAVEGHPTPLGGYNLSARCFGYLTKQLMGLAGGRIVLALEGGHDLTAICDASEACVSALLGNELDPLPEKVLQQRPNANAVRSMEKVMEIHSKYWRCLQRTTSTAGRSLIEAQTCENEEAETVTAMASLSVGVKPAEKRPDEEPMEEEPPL

[1] = biological target: T1, Protein deacetylase HDAC6 (Homo sapiens, UniProt Q9UBN7); experiment: Inhibition of human recombinant HDAC6 using fluorescent peptide p53 (379 to 382 residues) RHKK(Ac) as substrate by fluorescence based analysis
T1 sequence (Q9UBN7 whole entry): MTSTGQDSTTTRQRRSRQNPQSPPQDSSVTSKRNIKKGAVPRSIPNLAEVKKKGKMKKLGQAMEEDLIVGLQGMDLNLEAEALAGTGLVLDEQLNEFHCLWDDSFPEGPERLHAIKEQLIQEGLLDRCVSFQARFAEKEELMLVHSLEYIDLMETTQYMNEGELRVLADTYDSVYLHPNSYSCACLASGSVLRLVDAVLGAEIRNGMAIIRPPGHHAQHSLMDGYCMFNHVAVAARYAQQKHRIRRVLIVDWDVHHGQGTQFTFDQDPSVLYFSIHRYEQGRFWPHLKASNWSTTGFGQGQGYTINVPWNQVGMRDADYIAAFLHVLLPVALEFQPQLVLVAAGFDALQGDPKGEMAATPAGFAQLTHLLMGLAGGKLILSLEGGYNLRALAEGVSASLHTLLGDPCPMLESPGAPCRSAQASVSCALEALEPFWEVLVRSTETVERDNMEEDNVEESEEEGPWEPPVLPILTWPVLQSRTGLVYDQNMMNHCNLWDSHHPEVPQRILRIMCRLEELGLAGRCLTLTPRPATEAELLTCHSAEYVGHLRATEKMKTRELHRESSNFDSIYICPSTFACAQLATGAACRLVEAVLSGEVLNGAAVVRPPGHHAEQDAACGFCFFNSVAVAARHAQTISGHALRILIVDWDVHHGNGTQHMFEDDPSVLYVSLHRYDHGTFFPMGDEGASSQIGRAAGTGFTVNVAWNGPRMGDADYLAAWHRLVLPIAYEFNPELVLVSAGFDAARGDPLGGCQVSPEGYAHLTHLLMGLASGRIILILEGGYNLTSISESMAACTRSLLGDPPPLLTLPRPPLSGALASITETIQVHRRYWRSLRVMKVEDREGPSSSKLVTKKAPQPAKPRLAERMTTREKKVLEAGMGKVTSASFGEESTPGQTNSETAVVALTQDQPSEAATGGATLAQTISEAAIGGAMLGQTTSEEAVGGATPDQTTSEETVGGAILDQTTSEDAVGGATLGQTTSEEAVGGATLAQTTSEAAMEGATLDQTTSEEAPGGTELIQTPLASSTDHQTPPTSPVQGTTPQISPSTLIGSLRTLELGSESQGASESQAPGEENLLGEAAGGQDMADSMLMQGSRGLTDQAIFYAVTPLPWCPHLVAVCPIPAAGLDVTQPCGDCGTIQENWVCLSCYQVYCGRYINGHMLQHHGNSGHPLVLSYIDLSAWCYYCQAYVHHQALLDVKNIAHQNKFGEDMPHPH

Histone deacetylase 9 = Histone deacetylase 9 (Homo sapiens, UniProt Q9UKV0); experiment: Inhibition of human recombinant HDAC9 using Boc-Lys(tri-fluoroacetyl)-AMC as substrate by fluorescence based analysis
Chain of Histone deacetylase 9 (Q9UKV0 whole entry): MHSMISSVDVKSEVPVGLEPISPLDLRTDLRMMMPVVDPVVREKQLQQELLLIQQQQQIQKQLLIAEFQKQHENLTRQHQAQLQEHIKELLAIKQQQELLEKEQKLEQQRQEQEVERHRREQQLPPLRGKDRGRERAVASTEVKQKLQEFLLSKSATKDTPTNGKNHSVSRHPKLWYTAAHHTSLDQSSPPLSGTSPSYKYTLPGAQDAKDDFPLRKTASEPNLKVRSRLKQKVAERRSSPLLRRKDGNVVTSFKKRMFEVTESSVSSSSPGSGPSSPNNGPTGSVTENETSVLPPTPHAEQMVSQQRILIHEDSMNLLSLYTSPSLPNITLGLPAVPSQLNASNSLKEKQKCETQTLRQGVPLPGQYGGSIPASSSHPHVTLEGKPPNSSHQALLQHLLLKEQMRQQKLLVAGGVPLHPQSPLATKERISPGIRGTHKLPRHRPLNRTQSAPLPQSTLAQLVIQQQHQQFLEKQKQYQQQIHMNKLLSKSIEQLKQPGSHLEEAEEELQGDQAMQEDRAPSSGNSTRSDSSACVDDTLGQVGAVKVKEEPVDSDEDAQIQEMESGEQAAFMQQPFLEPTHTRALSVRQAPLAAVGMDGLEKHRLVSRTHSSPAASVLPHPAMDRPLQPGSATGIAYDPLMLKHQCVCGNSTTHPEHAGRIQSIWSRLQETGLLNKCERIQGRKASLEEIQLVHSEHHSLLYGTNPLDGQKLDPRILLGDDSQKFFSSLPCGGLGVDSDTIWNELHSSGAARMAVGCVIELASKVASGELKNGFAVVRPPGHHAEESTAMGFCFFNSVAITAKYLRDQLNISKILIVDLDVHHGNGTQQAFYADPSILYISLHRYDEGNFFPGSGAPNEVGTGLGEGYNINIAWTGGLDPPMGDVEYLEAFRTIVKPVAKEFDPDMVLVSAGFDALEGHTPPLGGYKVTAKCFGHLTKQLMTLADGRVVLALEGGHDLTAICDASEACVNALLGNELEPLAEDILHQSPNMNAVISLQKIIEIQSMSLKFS

[2] = biological target: T2, Protein deacetylase HDAC6 (Homo sapiens) (UniProt Q9UBN7); experiment: Inhibition of HDAC6 in human HH cells assessed as induction of acetylated H4 accumulation upto 10 uM by Western blot analysis; type: cell-based
T2 sequence (whole entry): T1 sequence (Q9UBN7 whole entry)

[3] = biological target: T2, Protein deacetylase HDAC6 (Homo sapiens); experiment: Inhibition of HDAC6 in human HH cells assessed as induction of acetylated tubulin accumulation at 0.3 uM by Western blot analysis; type: cell-based
[4] = biological target: T2, Protein deacetylase HDAC6 (Homo sapiens); experiment: Inhibition of HDAC6 in human HH cells assessed as induction of acetylated H3 accumulation upto 10 uM by Western blot analysis; type: cell-based
[5] = Half life in mouse at 50 mg/kg, po; type: ADME, organism-based; conditions: in vivo
[6] = Cmax in dog at 5 mg/kg, po; type: ADME, organism-based, Canis lupus familiaris; conditions: in vivo
[7] = AUClast in monkey at 0.5 mg/kg, iv; type: ADME, organism-based, Macaca mulatta; conditions: rhesus monkey, in vivo
[8] = Clearance in dog at 0.5 mg/kg, iv; type: ADME, organism-based, Canis lupus familiaris; conditions: in vivo
[9] = AUClast in dog at 0.5 mg/kg, iv; type: ADME, organism-based, Canis lupus familiaris; conditions: in vivo
[10] = AUClast in mouse at 50 mg/kg, po; type: ADME, organism-based; conditions: in vivo
Mus musculus [11] = experiment: Antiarthritic activity against collagen-induced arthritis DBA1J mouse model at 15 to 30 mg/kg, sc measured after 21 days; type: functional, organism-based; conditions: dose lower […], dose upper 30.0 mg/kg, time 21.0 day
[12] = Half life in dog at 5 mg/kg, po; type: ADME, organism-based, Canis lupus familiaris; conditions: in vivo
[13] = C0 in dog at 0.5 mg/kg, iv; type: ADME, organism-based, Canis lupus familiaris; conditions: in vivo
[14] = C0 in monkey at 0.5 mg/kg, iv; type: ADME, organism-based, Macaca mulatta; conditions: rhesus monkey, in vivo
[15] = C0 in mouse at 10 mg/kg, iv; type: ADME, organism-based; conditions: in vivo
[16] = Half life in monkey at 0.5 mg/kg, iv; type: ADME, organism-based, Macaca mulatta; conditions: rhesus monkey, in vivo
[17] = AUC (0 to infinity) in monkey at 0.5 mg/kg, iv; type: ADME, organism-based, Macaca mulatta; conditions: rhesus monkey, in vivo
Mus musculus [18] = experiment: Antiarthritic activity against collagen-induced arthritis DBA1J mouse model assessed as improvement in arthritis symptoms at 30 mg/kg, sc measured after 21 days; type: functional; conditions: time 21 day
[19] = AUC (0 to infinity) in dog at 5 mg/kg, po; type: ADME, organism-based, Canis lupus familiaris; conditions: in vivo
Rattus norvegicus [20] = experiment: Antiarthritic activity against adjuvant-induced arthritis Lewis rat model at 50 mg/kg, po measured after 8 days; type: functional, organism-based; conditions: time 8.0 day
[21] = Bioavailability in mouse at 10 mg/kg, iv; type: ADME, organism-based; conditions: in vivo
Rattus norvegicus [22] = experiment: Antiarthritic activity against adjuvant-induced arthritis Lewis rat model assessed as improvement in arthritis symptoms at 50 mg/kg, po measured after 8 days; type: functional; conditions: time 8 day
Mus musculus [23] = experiment: Antiarthritic activity against collagen-induced arthritis DBA1J mouse model assessed as improvement in arthritis symptoms at 15 mg/kg, sc measured after 21 days; type: functional; conditions: time 21 day
[24] = Bioavailability in dog at 0.5 mg/kg, iv; type: ADME, organism-based, Canis lupus familiaris; conditions: in vivo
[25] = AUClast in monkey at 10 mg/kg, po; type: ADME, organism-based, Macaca mulatta; conditions: rhesus monkey, in vivo
[26] = Half life in mouse at 10 mg/kg, iv; type: ADME, organism-based; conditions: in vivo
THP-1 = experiment: Inhibition of TNF-alpha secretion in LPS-stimulated human THP-1 cells pretreated with compound for 24 hrs followed by LPS-induction and measured after 4 hrs by ELISA analysis; type: functional, cell-based; conditions: dose 0.3-10 µM
[27] = Tmax in dog at 5 mg/kg, po; type: ADME, organism-based, Canis lupus familiaris; conditions: in vivo
[28] = Bioavailability in monkey at 0.5 mg/kg, iv; type: ADME, organism-based, Macaca mulatta; conditions: rhesus monkey, in vivo
[29] = AUC (0 to infinity) in monkey at 10 mg/kg, po; type: ADME, organism-based, Macaca mulatta; conditions: rhesus monkey, in vivo
[30] = AUC (0 to infinity) in mouse at 10 mg/kg, iv; type: ADME, organism-based; conditions: in vivo
[31] = Tmax in monkey at 10 mg/kg, po; type: ADME, organism-based, Macaca mulatta; conditions: rhesus monkey, in vivo

SMILES: O=C(NO)c1ccc(Cn2c3c(c4ccccc42)C(=O)CCC3)cc1
- IC50 (Histone deacetylase 5): > 20 µM
- IC50 (Histone deacetylase 4): > 20 µM
- IC50 [1]: 0.035 µM
- IC50 (Histone deacetylase 9): > 20 µM

- inhibition [2]: inactive
- inhibition [3]: Active
- inhibition [4]: inactive
- half-life [5]: 83.4 min
- Cmax [6]: 1030 ng/mL
- AUC(0-t) [7]: 299 ng·h/mL
- clearance [8]: 18.8 mL/min/kg
- AUC(0-t) [9]: 446 ng·h/mL
- AUC(0-t) [10]: 1140 ng·h/mL
- half-life [12]: 84 min
- C0 [13]: 2080 ng/mL
- C0 [14]: 1040 ng/mL
- C0 [15]: 4290 ng/mL
- half-life [16]: 18.6 min
- AUC [17]: 302 ng·h/mL
- AUC(0-inf) [19]: 1150 ng·h/mL
- bioavailability [21]: 19%
- bioavailability [24]: 25.1%
- AUC(0-t) [25]: 332 ng·h/mL
- half-life [26]: 17.4 min
- Tmax [27]: 24 min
- bioavailability [28]: 11.2%
- AUC(0-inf) [29]: 339 ng·h/mL
- AUC(0-inf) [30]: 1210 ng·h/mL
- Tmax [31]: 120 min
SMILES: CC1(C)CC(=O)c2c(C(F)(F)F)nn(Cc3ccc(C(=O)NO)cc3)c2C1
- Activity (Mus musculus [11]): Active
- Activity (Mus musculus [18]): 65%
- Activity (Rattus norvegicus [20]): Active
- Activity (Rattus norvegicus [22]): 59.6%
- Activity (Mus musculus [23]): 53%
- inhibition (THP-1): Dose-Dependent Effect
